Values of other authors as cited in US20090054334A1, “Combinatorial improvement of bifunctional drug properties” (priority 2007, published 2009).

Tests used:
[1] = in vivo
[2] = in vivo; remark: listed apart in the source

| distribution into protected cellular compartments, in the blood [1] | bioavailability [2] | half life [2] | blood-brain barrier crossing [2] | Compound |
| --- | --- | --- | --- | --- |
| 72-98% | 20% | 11.3 h |  | C=CC[C@@H]1/C=C(\C)C[C@H](C)C[C@H](OC)[C@H]2O[C@@](O)(C(=O)C(=O)N3CCCC[C@H]3C(=O)O[C@H](/C(C)=C/[C@@H]3CC[C@@H](O)[C@H](OC)C3)[C@H](C)[C@@H](O)CC1=O)[C@H](C)C[C@@H]2OC [FK506] |
|  | 50% |  | crosses the blood-brain barrier | CCC(C)(C)C(=O)C(=O)N1CCC[C@H]1C(=O)O [GPI-1485] |
